pIC50: −log10 of the molar value.
System: 885512-296-R-J2-PDC complex spheroid viability
Assay: Anticancer human tumor 885512-296-R-J2-PDC patient-derived breast carcinoma cell line growth inhibition [GQUAD]
Settings: for pIC50: curve of first compound; for viability, T/C: stronger effect = lower value
How it was run: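 Multi-cell-type spheroids of tumor cells with HUVEC and mesenchymal stem cells, treated with drug combinations. Concentrations descend in half-log steps from near clinical Cmax, or from 10 microM where Cmax is unknown; viability read-out.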

[1] = second compound 0.0316 µM, first compound 0.0316 µM
[2] = second compound 0.0316 µM, first compound 0.316 µM
[3] = second compound 0.1 µM, first compound 0.0316 µM
[4] = second compound 0.1 µM, first compound 0.316 µM
[5] = second compound 0.316 µM, first compound 0.0316 µM
[6] = second compound 0.316 µM, first compound 0.316 µM
[7] = second compound 1 µM, first compound 0.0316 µM
[8] = second compound 1 µM, first compound 0.316 µM
[9] = second compound 3.16 µM, first compound 0.0316 µM
[10] = second compound 3.16 µM, first compound 0.316 µM
[11] = second compound 10 µM, first compound 0.0316 µM
[12] = second compound 10 µM, first compound 0.316 µM
[13] = second compound 0.0316 µM, first compound 0.000999 µM
[14] = second compound 0.0316 µM, first compound 0.00316 µM
[15] = second compound 0.0316 µM, first compound 0.00999 µM
[16] = second compound 0.0316 µM, first compound 0.0999 µM
[17] = second compound 0.1 µM, first compound 0.000999 µM
[18] = second compound 0.1 µM, first compound 0.00316 µM
[19] = second compound 0.1 µM, first compound 0.00999 µM
[20] = second compound 0.1 µM, first compound 0.0999 µM
[21] = second compound 0.316 µM, first compound 0.000999 µM
[22] = second compound 0.316 µM, first compound 0.00316 µM
[23] = second compound 0.316 µM, first compound 0.00999 µM
[24] = second compound 0.316 µM, first compound 0.0999 µM
[25] = second compound 1 µM, first compound 0.000999 µM
[26] = second compound 1 µM, first compound 0.00316 µM
[27] = second compound 1 µM, first compound 0.00999 µM
[28] = second compound 1 µM, first compound 0.0999 µM
[29] = second compound 3.16 µM, first compound 0.000999 µM
[30] = second compound 3.16 µM, first compound 0.00316 µM
[31] = second compound 3.16 µM, first compound 0.00999 µM
[32] = second compound 3.16 µM, first compound 0.0999 µM
[33] = second compound 10 µM, first compound 0.000999 µM
[34] = second compound 10 µM, first compound 0.00316 µM
[35] = second compound 10 µM, first compound 0.00999 µM
[36] = second compound 10 µM, first compound 0.0999 µM
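Also: spheroids exposed to the compounds for one week.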
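For viability, T/C in this document: percent of tumor spheroid viability relative to DMSO vehicle control wells.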

Compound: CC(=O)O[C@H]1C(=O)[C@@]2(C)[C@H]([C@H](OC(=O)c3ccccc3)[C@]3(O)C[C@H](OC(=O)[C@H](O)[C@@H](NC(=O)c4ccccc4)c4ccccc4)C(C)=C1C3(C)C)[C@]1(OC(C)=O)CO[C@@H]1C[C@@H]2O + CN(C)c1ccc(Nc2c3ccc(NC(=O)CCN4CCCC4)cc3nc3cc(NC(=O)CCN4CCCC4)ccc23)cc1
- pIC50 (second compound 0.0316 µM): > 7.50
- pIC50 (second compound 0.1 µM): > 7.50
- pIC50 (second compound 0.316 µM): > 7.50
- pIC50 (second compound 1 µM): > 7.50
- pIC50 (second compound 3.16 µM): > 7.50
- pIC50 (second compound 10 µM): > 7.50
- viability, T/C [1]: 7.7%
- viability, T/C (second compound 0.0316 µM, first compound 0.1 µM): 3.78%
- viability, T/C [2]: 3.71%
- viability, T/C (second compound 0.0316 µM, first compound 1 µM): 2.86%
- viability, T/C (second compound 0.0316 µM, first compound 3.16 µM): 3.18%
- viability, T/C (second compound 0.0316 µM, first compound 10 µM): 3.65%
- viability, T/C [3]: 6.67%
- viability, T/C (second compound 0.1 µM, first compound 0.1 µM): 3.1%
- viability, T/C [4]: 3.16%
- viability, T/C (second compound 0.1 µM, first compound 1 µM): 4.15%
- viability, T/C (second compound 0.1 µM, first compound 3.16 µM): 3.73%
- viability, T/C (second compound 0.1 µM, first compound 10 µM): 3.82%
- viability, T/C [5]: 8.31%
- viability, T/C (second compound 0.316 µM, first compound 0.1 µM): 4.86%
- viability, T/C [6]: 3.98%
- viability, T/C (second compound 0.316 µM, first compound 1 µM): 3.68%
- viability, T/C (second compound 0.316 µM, first compound 3.16 µM): 3.77%
- viability, T/C (second compound 0.316 µM, first compound 10 µM): 3.72%
- viability, T/C [7]: 10.4%
- viability, T/C (second compound 1 µM, first compound 0.1 µM): 4.09%
- viability, T/C [8]: 3.56%
- viability, T/C (second compound 1 µM, first compound 1 µM): 3.3%
- viability, T/C (second compound 1 µM, first compound 3.16 µM): 3.31%
- viability, T/C (second compound 1 µM, first compound 10 µM): 3.95%
- viability, T/C [9]: 5.71%
- viability, T/C (second compound 3.16 µM, first compound 0.1 µM): 3.67%
- viability, T/C [10]: 3.71%
- viability, T/C (second compound 3.16 µM, first compound 1 µM): 3.88%
- viability, T/C (second compound 3.16 µM, first compound 3.16 µM): 5.32%
- viability, T/C (second compound 3.16 µM, first compound 10 µM): 5.08%
- viability, T/C [11]: 6.02%
- viability, T/C (second compound 10 µM, first compound 0.1 µM): 4.19%
- viability, T/C [12]: 2.67%
- viability, T/C (second compound 10 µM, first compound 1 µM): 4.93%
- viability, T/C (second compound 10 µM, first compound 3.16 µM): 3.01%
- viability, T/C (second compound 10 µM, first compound 10 µM): 3.27%

Compound: CC[C@@]1(O)C(=O)OCc2c1cc1n(c2=O)Cc2cc3c(CN(C)C)c(O)ccc3nc2-1 + CN(C)c1ccc(Nc2c3ccc(NC(=O)CCN4CCCC4)cc3nc3cc(NC(=O)CCN4CCCC4)ccc23)cc1
- pIC50 (second compound 0.0316 µM): 7.71
- pIC50 (second compound 0.1 µM): 7.66
- pIC50 (second compound 0.316 µM): 7.69
- pIC50 (second compound 1 µM): 7.69
- pIC50 (second compound 3.16 µM): 7.70
- pIC50 (second compound 10 µM): > 9.00
- viability, T/C [13]: 105%
- viability, T/C [14]: 93.1%
- viability, T/C [15]: 80.7%
- viability, T/C [1]: 28.4%
- viability, T/C [16]: 6.28%
- viability, T/C [2]: 4.08%
- viability, T/C [17]: 102%
- viability, T/C [18]: 95.5%
- viability, T/C [19]: 83.5%
- viability, T/C [3]: 34.9%
- viability, T/C [20]: 6.9%
- viability, T/C [4]: 3.94%
- viability, T/C [21]: 95.9%
- viability, T/C [22]: 103%
- viability, T/C [23]: 80.7%
- viability, T/C [5]: 30.2%
- viability, T/C [24]: 8.66%
- viability, T/C [6]: 5.73%
- viability, T/C [25]: 99%
- viability, T/C [26]: 89.1%
- viability, T/C [27]: 78.9%
- viability, T/C [7]: 32.2%
- viability, T/C [28]: 8.09%
- viability, T/C [8]: 7.14%
- viability, T/C [29]: 85.8%
- viability, T/C [30]: 78.5%
- viability, T/C [31]: 82.5%
- viability, T/C [9]: 28.2%
- viability, T/C [32]: 11.3%
- viability, T/C [10]: 5.81%
- viability, T/C [33]: 20.1%
- viability, T/C [34]: 23.4%
- viability, T/C [35]: 18.2%
- viability, T/C [11]: 10.8%
- viability, T/C [36]: 7.67%
- viability, T/C [12]: 5.22%

Compound: CCc1c2c(nc3ccc(O)cc13)-c1cc3c(c(=O)n1C2)COC(=O)[C@]3(O)CC + CN(C)c1ccc(Nc2c3ccc(NC(=O)CCN4CCCC4)cc3nc3cc(NC(=O)CCN4CCCC4)ccc23)cc1
- pIC50 (second compound 0.0316 µM): > 9.00
- pIC50 (second compound 0.1 µM): > 9.00
- pIC50 (second compound 0.316 µM): > 9.00
- pIC50 (second compound 1 µM): > 9.00
- pIC50 (second compound 3.16 µM): > 9.00
- pIC50 (second compound 10 µM): > 9.00
- viability, T/C [13]: 18.3%
- viability, T/C [14]: 6.69%
- viability, T/C [15]: 3.15%
- viability, T/C [1]: 1.94%
- viability, T/C [16]: 1.66%
- viability, T/C [2]: 1.39%
- viability, T/C [17]: 15.7%
- viability, T/C [18]: 7.02%
- viability, T/C [19]: 3.83%
- viability, T/C [3]: 2.59%
- viability, T/C [20]: 1.42%
- viability, T/C [4]: 1.57%
- viability, T/C [21]: 13.1%
- viability, T/C [22]: 7.17%
- viability, T/C [23]: 3.49%
- viability, T/C [5]: 2.63%
- viability, T/C [24]: 1.58%
- viability, T/C [6]: 1.1%
- viability, T/C [25]: 19.3%
- viability, T/C [26]: 6.88%
- viability, T/C [27]: 3.62%
- viability, T/C [7]: 2.24%
- viability, T/C [28]: 1.82%
- viability, T/C [8]: 1.23%
- viability, T/C [29]: 18.7%
- viability, T/C [30]: 11.3%
- viability, T/C [31]: 4.83%
- viability, T/C [9]: 2.33%
- viability, T/C [32]: 1.61%
- viability, T/C [10]: 1.26%
- viability, T/C [33]: 12.8%
- viability, T/C [34]: 10.4%
- viability, T/C [35]: 6.78%
- viability, T/C [11]: 3.28%
- viability, T/C [36]: 1.43%
- viability, T/C [12]: 0.56%
